In patent publication US5958940A, “Tricyclic compounds useful as inhibitors of farnesyl-protein transferase” (Schering Corporation, priority 1997, dated 1999):

Target: T1, farnesyl protein transferase (Rattus norvegicus, UniProt Q02293+Q04631)
T1 construct: partially purified rat brain farnesyl protein transferase (FPT); from tissue; host or cells: rat brain, partially purified
Assay: FPT inhibition, in vitro enzyme assay (Ras-CVLS farnesylation by partially purified rat brain FPT)
Format: biochemical

SMILES	inhibition at 0.3 µM (@0.3 μM)	inhibition at 0.1 µM (@0.1 μM)
O=C(NCc1cccnc1)[C@@H]1CCCN1C1c2ncc(Br)cc2CCc2cc(Cl)cc(Br)c21 (single isomer, unassigned) [Example 2 Isomer A, 1-(3,10-dibromo-8-chloro-6,11-dihydro-5H-benzo[5,6]cyclohepta[1,2-b]pyridine-11-yl)-N-(3-pyridinylmethyl)-2-pyrrolidine carboxamide]	15%	–
O=C(NCc1cccnc1)[C@@H]1CCN1C1c2ccc(Cl)cc2CCc2cc(Br)cnc21 (single isomer, unassigned) [Example 3 Isomer B, 1-(3-bromo-8-chloro-6,11-dihydro-5H-benzo[5,6]cyclohepta[1,2-b]pyridine-11-yl)-N-(3-pyridinylmethyl)2-azetidine carboxamide]	–	17%
